Data on two molecules can be found in US20230099344A1, “COMPOUNDS AND METHODS FOR THE TARGETED DEGRADATION OF IRAK-4” (Arvinas Operations, Inc., priority 2021, published 2023).

The target of assay [1] is T1, IRAK-4 (Homo sapiens, UniProt Q9NWZ3).
T1 sequence (Q9NWZ3 1-460): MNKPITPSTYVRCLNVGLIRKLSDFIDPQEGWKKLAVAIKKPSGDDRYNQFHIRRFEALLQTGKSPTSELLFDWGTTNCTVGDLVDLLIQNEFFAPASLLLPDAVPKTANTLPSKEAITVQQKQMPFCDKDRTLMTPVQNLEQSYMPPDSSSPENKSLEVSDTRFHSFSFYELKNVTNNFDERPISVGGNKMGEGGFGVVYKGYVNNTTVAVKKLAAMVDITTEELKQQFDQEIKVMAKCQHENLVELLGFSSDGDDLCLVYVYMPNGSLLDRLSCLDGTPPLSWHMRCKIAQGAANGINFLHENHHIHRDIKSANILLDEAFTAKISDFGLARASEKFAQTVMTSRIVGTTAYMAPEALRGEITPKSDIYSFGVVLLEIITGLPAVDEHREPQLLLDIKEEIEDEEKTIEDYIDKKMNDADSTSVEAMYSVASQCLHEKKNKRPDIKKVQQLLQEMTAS
Nature of the assay: IRAK-4 ELISA, PBMC degradation. Also noted: endogenous in cells; host or cells: PBMC. Type of assay: cell-based. The note with it: treated overnight. The gist of the method:
(§1)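 Steps: seed cells (OCI-Ly10 1×10^6/ml; PBMC 2×10^6/ml); add compound the same day; incubate overnight; lyse; quantify IRAK-4 by matched-pair ELISA.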
Background: In an ELISA, binding on a coated surface is turned into a signal by an enzyme label.

Assay [2] concerns the target T1, IRAK-4. Nature of the assay: IRAK-4 ELISA, OCI-Ly10 degradation. Conditions: treated overnight. Format: cell-based. Also noted: endogenous in cells. In a few lines:
as §1

Assay [3] has as its target T2, IRAK-4 (Mus musculus, UniProt Q8R4K2).
T2 construct: plasma, spleen and lung tissue were collected for analysis of compound concentration and IRAK-4 quantification; from tissue; host or cells: spleen and lung of wild type mice
T2 sequence (Q8R4K2 1-459): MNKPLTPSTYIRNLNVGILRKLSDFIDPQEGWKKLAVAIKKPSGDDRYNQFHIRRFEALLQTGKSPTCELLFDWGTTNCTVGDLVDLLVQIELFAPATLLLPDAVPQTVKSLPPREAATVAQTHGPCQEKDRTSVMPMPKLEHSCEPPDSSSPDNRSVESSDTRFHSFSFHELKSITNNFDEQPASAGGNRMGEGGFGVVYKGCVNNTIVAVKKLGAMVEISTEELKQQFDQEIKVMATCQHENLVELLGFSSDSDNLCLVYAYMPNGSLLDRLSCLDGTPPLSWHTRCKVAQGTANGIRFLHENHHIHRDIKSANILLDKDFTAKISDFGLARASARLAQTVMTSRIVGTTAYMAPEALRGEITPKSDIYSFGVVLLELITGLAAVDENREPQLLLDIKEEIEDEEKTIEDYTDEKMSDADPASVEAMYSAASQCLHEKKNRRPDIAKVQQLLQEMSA
Kind of assay: PD study in wild type mice (spleen and lung). Type of assay: in vivo. Conditions: oral 10, 30 or 90 mg/kg, terminated 24 h later, ELISA, vs vehicle, FIGS. 3A and 3B. How it is done:
FIGS. 3A and 3B. PD study in wild type mice.
A PD Study in Wild Type Mice was Performed
In FIGS. 3A and 3B, mice were randomly assigned to each treatment group. Animals were dosed orally with 10, 30, or 90 mg/kg compound formulated in 10% DMSO, 90% (2% Tween 80 in PEG 400) and terminated 24 h later. At termination, plasma, spleen and lung tissue were collected for analysis of compound concentration and IRAK-4 quantification. Spleen and lung were snap frozen. IRAK-4 content in any tissue is assessed with the same protocol described for tumor lysates.

The subject of a further assay is IL8. Nature of the assay: IL-1β stimulated IL8 inhibition assay in PBMC. The note with it: human PBMCs, IL-1β stimulation, compound overnight, IL8 by MSD after 24 hrs. Format: cell-based. The gist of the method: (§2)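 Seed human PBMC, 2.0×10^6 cells/mL → compound overnight → stimulant (IL-1β, LPS or R848) at per-donor EC50 → 24 hrs → media to MSD for IL6/IL8.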
The test system of assay [4] is IL6. Nature of the assay: IL-1β stimulated IL6 inhibition assay in PBMC. Type of assay: cell-based. Conditions: PBMC, human PBMCs, IL-1β stimulation, compound overnight, IL6 by MSD after 24 hrs. In a few lines: as §2
Assay [5] concerns IL6. Kind of assay: LPS stimulated IL6 inhibition assay in PBMC. Type of assay: cell-based. Conditions: Homo sapiens, PBMC, 24 h, human PBMCs, LPS stimulation, compound overnight, IL6 by MSD after 24 hrs. In a few lines: as §2
The target in assay [6] is T1, IRAK-4. Kind of assay: PD study in C.B.17 SCID mice with OCI-LY1 tumor xenograft. Type of assay: in vivo. Also noted: from tissue; host or cells: OCI-Ly1 tumour xenograft from C.B.17 SCID mice. Conditions: OCI-Ly1 tumor lysate, ELISA normalized to total protein; oral 5, 15 or 50 mg/kg, 24 hours post-dose; vs vehicle; FIG. 2. How it is done: FIG. 2. PD study in C.B.17 SCID mice with OCI-LY1 tumor xenograft.
PD Study for with in C.B.17 SCID and WT Mice
Cell culture: OCI-Ly1 tumor cells were maintained as a suspension in IMDM medium supplemented with 20% fetal bovine serum under an atmosphere of 5% C02 in air at 37° C. Cell density was maintained below 1×10^6/mL.
Animals: Female C.B. 17 SCID mice aged 6-8 weeks weighing between 16-18 g were used and maintained according to IACUC protocols.
Tumor Inoculation: Each mouse was inoculated with OCI-Ly1 tumor cells (10×106) in 0.1 mL of RPMI with Matrigel. Treatment was initiated when the tumor sizes reached […].
A PD Study in C.B.17 SCID Mice with OCI-LY1 Tumor Xenograft was Performed
In FIG. 2, animals were dosed orally after tumors were inoculated and the tumor sizes reached […], with 5, 15, or 50 mg/kg formulated with 10% DMSO, 90% (2% Tween 80 in PEG 400) and sacrificed humanely 24 hours post-dose. Blood was obtained for isolation of plasma for terminal compound exposure. Tumors was removed and divided in 2 portions, one each for terminal compound concentration and for determination of IRAK-4 content. Compound concentrations were determined by LC/MS with calibrated standards. IRAK-4 content in tumor lysate was quantified by ELISA and normalized to total protein concentration per sample. […]

Assay [7] relates to IL6. Nature of the assay: R848 stimulated IL6 inhibition assay in PBMC. The note with it: PBMC, human PBMCs, R848 stimulation, compound overnight, IL6 by MSD after 24 hrs. Type of assay: cell-based. In a few lines: as §2

pIC50: −log10 of the molar value. Some results are limits rather than exact numbers.

The term DC50 denotes the midpoint of the concentration-degradation curve. A low value points to a more potent degrader. The pIC50 is the negative decadic logarithm of the IC50, by convention in mol/L. Consider `O=C1CCC(N2C(=O)c3ccc(N4CCN(CCN5CCC(n6cc7cc(NC(=O)c8cnn9cccnc89)c(OCC8CC8)cc7n6)CC5)CC4)cc3C2=O)C(=O)N1` (stereo not shown) [Example 167], for which the DC50 on IRAK-4 [1] was below 1 nM; on IRAK-4 [2] (OCI-Ly10 cells), below 10 nM. The Dmax is at least 90% at IRAK-4 [1] and at least 90% at IRAK-4 [2] (OCI-Ly10, OCI-Ly10 cells). Moreover, the “PBMC DC90” value on IRAK-4 [1] is “A (A represents a DC90 value <10.0 nM)”. Moreover, the “IRAK-4 concentration in spleen and lung samples” value on IRAK-4 [3] is “much lower”. Besides, the negative logarithm of the IC50 (pIC50) in the assay on IL8 (read-out: IL1β stim IL8 inhibition IC50) was at most 7.00; with IL6 [4] (Homo sapiens, 24 h, read-out: IL1β stim IL6 inhibition IC50), 7.30 to 8.00. Further, the Emax is 80 to 90% in the assay with IL8 (read-out: IL1β stim IL8 inhibition Ymax) and at least 90% with IL6 [4] (read-out: IL1β stim IL6 inhibition Ymax).

`CC(C)Oc1cc2c(cc1NC(=O)c1cnn3cccnc13)CN(C1CCN(C(C)(C)C3CN(c4ccc5c(c4)C(=O)N(C4CCC(=O)NC4=O)C5=O)C3)CC1)C2=O` (stereo not shown) [Example 112]: the Dmax in the assay on IL6 [5] (read-out: LPS Stim IL6 inhibition Dmax) is at least 90%; at IRAK-4 [1] it was at least 90%; in the assay with IL6 [7] (Homo sapiens, 24 h, read-out: R848 stim IL6 inhibition Dmax), at least 90%. Further, the pIC50 in the assay on IL6 [5] (read-out: LPS stim IL6 inhibition IC50) and in the assay on IL6 [7] (read-out: R848 stim IL6 inhibition IC50) was 7.30 to 8.00 throughout. This molecule also had a 50% degradation concentration (DC50) on IRAK-4 [1] of 1 to 5 nM. The “PBMC DC90” value at IRAK-4 [1] is “A (A represents a DC90 value <10.0 nM)”. The “IRAK-4 concentration in spleen and lung samples” value at IRAK-4 [3] was “much lower”. Moreover, the “IRAK-4 concentration in the tumor samples” value on IRAK-4 [6] is “lower”.
